Series [1] is described as follows: mutagenicity (coupler stated to be nonmutagenic).
Series [2] in a line: coloration of hair by the coupler in combination with oxidation dye precursors, oxidizing alkaline medium. Also on record: species or system human. Here is the method: According to this process, the dyeing composition described above is mixed at the time of use with a sufficient quantity of an oxidizing solution, and the mixture obtained is then applied on the hair.
The oxidizing solution contains oxidizing agents such as hydrogen peroxide, urea peroxide or persalts such as ammonium persulphate. "20 volumes" hydrogen peroxide solution is preferably used.
The mixture obtained is applied on the hair; it is left in place for 10 to 40 minutes, preferably 15 to 30 minutes, after which the hair is rinsed, washed with shampoo, rinsed again and dried.

For the compound `COc1ccc(N)c(OC)c1N` [2,4-diamino-1,3-dimethoxybenzene], in series [1], the mutagenicity entry is reported as “nonmutagenic”. Besides, the “stability of the hues to light, inclement weather and washing” value in series [2] (para-aminophenols, after development in the presence of an oxidizing agent) is “especially stable to light, to inclement weather and to washing”. In series [2] (red colorations, in combination with p-aminophenols, oxidizing alkaline medium), the “stability of the colorations” value is “good stability”.

For the origin of these results see US4865619A, “Use, as a coupler, of 2,4-diamino-1,3-dimethoxybenzene or one of its salts, in combination with oxidation dye precursors, for dyeing human hair, hair dyeing composition containing the said coupler and process for preparing the said coupler” (L'Oreal, priority 1987, dated 1989).
